Measurements: patent US10316057B2, “Tandem facial amphiphiles” (WISCONSIN ALUMNI RESEARCH FOUNDATION, priority 2011, dated 2019)
Several values for one entry are separate records, joined by “and”; a condition that tells them apart may be missing. Equal values may be shown once. Where a name gives a salt, the structure may show the parent alone.

Columns and labels:
[1] = Critical micelle concentration by solubilization of a hydrophobic fluorescent dye; format: physicochemical; settings: mean ± SD, n = 3
Description: The “Critical Micelle Concentration” (CMC) refers to the concentration of a detergent (e.g., an amphiphile as described herein) in an aqueous solution at which the detergent molecules self-assemble into micelles. Below the CMC, detergents are mostly monomeric; above the CMC, micelle concentration increases linearly with detergent concentration. The CMC is dependent upon many factors and is detergent-specific. The CMC of a detergent can be determined experimentally by measuring the solubilization of a water-insoluble dye or fluorophore while varying the concentration of detergent. A CMC may also be determined by measuring the diminution of the surface tension of an aqueous solution as a function of detergent concentration (CMCs determined by either method correlate with each other). The CMC is determined by extrapolating the plot of solubilization vs. concentration (or surface tension vs. concentration) in the two linear regions above and below the CMC. Where the two lines intersect is the CMC. The CMC can also be determined by the method of Nugebauer, J. M. (1990), Methods in Enzymology, 182:239-253.
TFA-0 forms a hydrogel at concentrations >0.4 wt %, and this compound was not studied further. The other three TFAs are soluble to 5-10 wt % in aqueous media. Critical micelle concentrations (CMC) were determined by monitoring solubilization of a hydrophobic fluorescent dye, […] (Chattopadhyay et al., Anal. Biochem. 1984, 139, 408-412), and the hydrodynamic radii (Rh) of the micelles were determined via dynamic light scattering (DLS). Table 1 compares the data for TFAs with those for DDM, a conventional detergent that is very widely used for MP applications; DDM and the TFAs share maltose as their hydrophilic moieties. CMC values of the three TFAs are smaller than that of DDM, whether CMC is measured in units of mM or wt %.
Analysis of these TFAs for their CMC values provided the data in Table 3.

[2] = Micelle characterization by gel filtration with triple detector analysis (TDA); format: physicochemical; settings: for dn/dc, specific refractive index increment / IV, intrinsic viscosity / N, aggregation number of micelles / Rh (nm) / MMW, molecular weight of micelles / Mw/Mn, weight-averaged molecular weight divided by number-averaged molecular weight: TDA; for IV, intrinsic viscosity / N, aggregation number of micelles / Rh (nm) / MMW, molecular weight of micelles: 20 mM HEPES, 150 mM NaCl buffer; for IV, intrinsic viscosity / N, aggregation number of micelles / Rh (nm) / MMW, molecular weight of micelles / Mw/Mn, weight-averaged molecular weight divided by number-averaged molecular weight: mean ± SD; for MMW, molecular weight of micelles: TFA-1 n = 6, DDM n = 8; for Mw/Mn, weight-averaged molecular weight divided by number-averaged molecular weight: micelles; for MW of micelles in water: summary statement
Procedure: Micelles formed by DDM or by TFA-1 in pH 7.0 buffer (20 mM HEPES, 150 mM NaCl) were further characterized by gel filtration using a triple-detector system (Gatta et al., Anal. Biochem. 2010, 404, 21-29), analyzing light scattering, refractive index, and differential pressure (Table 2). In both cases the micelles are globular and monodisperse. TFA-1 micelles contain only 6 molecules, which contrasts with the ˜175 molecules in a DDM micelle. TFA-2 (R=ethyl) behaved similarly to TFA-1 (R=methyl), given the similarity in Rh, but TFA-3 (R=butyl) forms larger micelles. A related trend was observed among lipopeptides, with increasing length of the alkyl appendages leading to increasing micelle size (McGregor et al., Nat. Biotech. 2003, 21, 171-176).
The on-line SEC triple detector array (Gatta et al., Anal. Biochem. 404, 21 (2010)) (Viscotek Corporation, a Malvern Company) used for detergent analysis is composed of 1) a 660 nm differential refractometer for quantifying the concentration C (mg/mL) for all molecules according to their specific refractive index increment do/dc (mL/g) using Snell's Law of Refraction (RI signal=KRI*C*(dn/dc)/RISol), 2), a single right angle 90° static light scattering (RALS) detector for measuring the average mass M (Da) according to the Raleigh Light Scattering Equation for small molecules (LS90° signal=Mavg*RIsol^2*C*(dn/dc)^2)/KLS*Kopt, where Kopt=4*π^2/(λ^4*NA), and 3) an absolute differential viscometer (Haney, J. Appl. Polym. Sci. 30, 3023 (1985)) for measuring differential pressure (DP) and calculating intrinsic viscosity (IV; dL/g) according to Newtonian Viscosity (liquid layers) applied to tubes using Poiseulle's Law (DP signal=IV*C) and for calculating the radius of hydration Rh (nm) according to Einstein's volume of hydration equation for hard spheres (Rh=[( 3/10π)*IV*M/NA]^1/3).
The IV represents molecular shape and for proteins it can vary from 0.017 dl/g for globular shapes to 0.355 dl/g for elongated shapes to 0.499 dl/g for complete denaturation (Scheraga and Mandelkern, J. Chem. Phys. 75, 179-184 (1953); Dutta et al., J. Chromatogr. 536, 113-121 (1991); Chenal et al., J. Biol. Chem. 16, 284(3), 1781-1789 (2009)). The chromatography pump, injector, SEC column (0.75×60 cm TSK G3000 plus guard column), and TDArray are placed in a 4° C. cold box, while the buffer (degassed for more than 1 hr with stir prior use) is at room temperature (RT) to allow it to be run through a RT on-line degasser, which then runs though 3 ft of 4° C. stainless steel tubing before entering the SEC pump, injector and column. The extensive degassing insures an accurate DP measurement. With this configuration, the temperature at the detectors is 6° C. TDA buffer was 20 mM Hepes, 150 mM NaCl, […] and either 0.1 mM TFA-1 or 1 mM DDM. The refractive index of the solvent RISol was measured at 10° C. using an Anton Paar Abbemat temperature controlled refractometer at 589.2 nm. Triple detection data at every 5 Hz data point throughout the complete SEC peak were used for all analysis.
For calibration, the detector response factors KRI and KLS were measured using Ovalbumin Fraction VII (Sigma). Prior to calibration, ovalbumin was first purified by SEC (280 nm detection) at 4° C. to remove small populations of dimers and aggregates, and to insure Gaussian detector peaks for TDA calibration. Ovalbumin was solubilized at 26 mg/mL in TDA buffer at 4° C. for 10 min and clarified by centrifugation (10 min 15,000×g); collecting the top 30% of the SEC elution peak from 500 μL injections yielded monodisperse ovalbumin at 5-7 mg/mL. Ovalbumin mass was 44.3 kDa (Sigma Product Information sheet and references therein) with a 0.701 dA280nm/dc (Pace et al., Prot. Sci. 4(11), 2411-2423 (1995)) and 0.187 dn/dc (Maezawa et al., Biochem. Biophys. Acta 747, 291-297 (1983); Hayashi et al., Methods Enzymol. 172, 514-528 (1989)). […]

Row | SMILES | CMC [1] | CMC (wt %) [1] | dn/dc, specific refractive index increment [2] | IV, intrinsic viscosity [2] | N, aggregation number of micelles [2] | Rh (nm) [2] | MMW, molecular weight of micelles [2] | Mw/Mn, weight-averaged molecular weight divided by number-averaged molecular weight [2] | MW of micelles in water [2]
1 | CCCCCCCCCCCCO[C@@H]1O[C@H](CO)[C@@H](O[C@H]2O[C@H](CO)[C@@H](O)[C@H](O)[C@H]2O)[C@H](O)[C@H]1O [DDM, dodecyl-β-D-maltoside, reference compound] | 170 µM | 0.009 wt % and 0.0087 wt % | 0.130 mL/g | 0.028 ± 0.009 dL/g | 176.4 ± 1.3 | 3.42 ± 0.04 nm | 89982 ± 663 Da | 1.01 ± 0.00 | ~90 kD
2 | C[C@H](CCC(=O)N(C)CCCN(C)C(=O)CC[C@@H](C)[C@H]1CC[C@H]2[C@@H]3CC[C@@H]4C[C@H](O[C@@H]5O[C@H](CO)[C@@H](O[C@H]6O[C@H](CO)[C@@H](O)[C@H](O)[C@H]6O)[C@H](O)[C@H]5O)CC[C@]4(C)[C@H]3C[C@H](O[C@@H]3O[C@H](CO)[C@@H](O[C@H]4O[C@H](CO)[C@@H](O)[C@H](O)[C@H]4O)[C@H](O)[C@H]3O)[C@]12C)[C@H]1CC[C@H]2[C@@H]3CC[C@@H]4C[C@H](O[C@@H]5O[C@H](CO)[C@@H](O[C@H]6O[C@H](CO)[C@@H](O)[C@H](O)[C@H]6O)[C@H](O)[C@H]5O)CC[C@]4(C)[C@H]3C[C@H](O[C@@H]3O[C@H](CO)[C@@H](O[C@H]4O[C@H](CO)[C@@H](O)[C@H](O)[C@H]4O)[C@H](O)[C@H]3O)[C@]12C [TFA-1] | 13 ± 1.4 µM | 0.0028 ± 0.0003 wt % | 0.173 mL/g | 0.036 ± 0.005 dL/g | 6 and 6.2 ± 0.07 | 1.96 ± 0.01 nm | 13279 ± 157 Da | 1.00 ± 0.00 | ~13 kD
